The values that follow are results of earlier work, collected in PubChem BioAssay AID1259410 (Chemical Carcinogenesis Research Information System (CCRIS), 2018).

Molecules are shown by their SMILES.

This data set relates to rodent tumor promotion studies, tumor incidence. The data set can be described thus: CCRIS tumor promotion studies.
Setting [1] is: Carcinogen: 7,12-DIMETHYLBENZ(A)ANTHRACENE, Doses [Carcinogen]: TOP, Route [Carcinogen]: DERMAL, Route [Promoter]: DERMAL, Species: MOUSE, Strain/Sex: FEMALE.

For `CC[C@H](C)[C@H](N)C(=O)O`, the outcome (Carcinogen: N-BUTYL-N-(4-HYDROXYBUTYL)NITROSAMINE, 3817-11-6, Doses [Carcinogen]: 0.05% IN DRINKING WATER FOR 4 WK, Doses [Promoter]: 0, 2% IN DIET BEGINNING POST CARCINOGEN TREATMENT AND CONTINUING FOR DURATION OF STUDY (STUDY DURATION: 40 WK), Route [Carcinogen]: ORAL, Route [Promoter]: ORAL, Species: RAT, Strain/Sex: F344/MALE) was “bladder: carcinoma”.

`NC[C@@H]1O[C@H](O[C@H]2[C@@H](O)[C@H](O[C@@H]3[C@@H](O)[C@H](N)C[C@H](N)[C@H]3O[C@H]3O[C@H](CN)[C@@H](O)[C@H](O)[C@H]3N)O[C@@H]2CO)[C@H](N)[C@@H](O)[C@@H]1O`: the outcome (Carcinogen: AZOXYMETHANE, 25843-45-2, Doses [Carcinogen]: 8 MG/KG 1/WK FOR 8 WK, Doses [Promoter]: 0, 100, 200 PPM IN DRINKING WATER BEGINNING 2 WK PRIOR TO CARCINOGEN TREATMENT AND CONTINUING FOR DURATION OF STUDY (STU, Doses [Promoter]: 0, 100, 200 PPM IN DRINKING WATER BEGINNING 2 WK PRIOR TO CARCINOGEN TREATMENT AND CONTINUING FOR DURATION OF STUDY (STU, Route [Carcinogen]: SUBCUTANEOUS, Route [Promoter]: ORAL, Species: RAT, Strain/Sex: F344/FEMALE) is “colon: adenocarcinoma”.

Regarding `CC(C)(C)NC(=O)[C@H]1CC[C@H]2[C@@H]3CC=C4C=C(C(=O)O)CC[C@]4(C)[C@H]3CC[C@]12C`, the outcome (Carcinogen: 3,2'-DIMETHYL-4-AMINOBIPHENYL, 13394-86-0, Doses [Carcinogen]: 50 MG/KG BW ONCE/2 WK FOR FIRST 20 WK, Doses [Promoter]: 0, 10, 50 MG/KG BW BY GAVAGE 3X/WK FOR 40 WK BEGINNING 20 WK POST CARCINOGEN TREATMENT (STUDY DURATION: 60 WK), Doses [Promoter]: 0, 10, 50 MG/KG BW BY GAVAGE 3X/WK FOR 40 WK BEGINNING 20 WK POST CARCINOGEN TREATMENT (STUDY DURATION: 60 WK), Route [Carcinogen]: SUBCUTANEOUS, Route [Promoter]: ORAL, Species: RAT, Strain/Sex: F344/MALE) is “prostate (ventral): adenocarcinoma”.

As to `O=C1OC(O)C(C(Cl)Cl)=C1Cl` (stereo unspecified), where the note is “Carcinogen: N-METHYL-N'-NITRO-N-NITROSOGUANIDINE [70-25-7], SODIUM CHLORIDE [7647-14-5], Doses [Carcinogen]: 100 PPM MNNG IN DRINKING WATER FOR 8 WK, 5% SODIUM CHLORIDE IN DIET FOR 8 WK (STUDY DURATION: 65 WK), Doses [Promoter]: 30 PPM IN DRINKING WATER FOR 53 WK BEGINNING POST LAST CARCINOGEN DOSE (STUDY DURATION: 65 WK), Route [Carcinogen]: ORAL, ORAL, Route [Promoter]: ORAL, Species: RAT, Strain/Sex: WISTAR/MALE”, the outcome was “glandular stomach: adenocarcinoma”. On to `Cc1cc(C)cc(O)c1`, for which the outcome under setting [1] was “integumentary system (skin)”. `C=CC1CC=CCC1` (stereo unspecified): the outcome (Carcinogen: 7,12-Dimethylbenz(a)anthracene, 57-97-6, Doses [Carcinogen]: 100 ug once in sesame oil, administered 4 mo after vinylcyclohexene diepoxide dosing, Doses [Promoter]: 160 mg/kg bw for 25 days, administered daily in sesame oil, study duration 3 or 5 months, Route [Carcinogen]: Directly on ovary, Route [Promoter]: Intraperitoneal, Species: Rat, Strain/Sex: Fischer 344/Female) is listed as “ovary: tumors (non-neoplastic cystic ovaries also observed)”. Regarding `Oc1ccc(Cl)cc1`, the outcome under setting [1] is reported as “integumentary system (skin)”. With `CCCCCCCC/C=C\CCCCCCCC(=O)OC`, the outcome (Carcinogen: 7,12-DIMETHYLBENZ(A)ANTHRACENE, Doses [Carcinogen]: TOP, Route [Carcinogen]: DERMAL, Route [Promoter]: DERMAL, Species: MOUSE, Strain/Sex: MALE,FEMALE) is “integumentary system (skin)”.

Turning to `Cc1cccc(Nc2cc(Cl)nc(SCC(=O)O)n2)c1C`, the outcome was “liver: adenoma” (Carcinogen: 2-ACETYLAMINOFLUORENE, 53-96-3, Doses [Carcinogen]: 0.02% IN DIET FOR 8 WK, Doses [Promoter]: 0, 0.1% IN DIET FOR 37 WK BEGINNING 2 WK POST CARCINOGEN TREATMENT (STUDY DURATION: 39 WK), Route [Carcinogen]: ORAL, Route [Promoter]: ORAL, Species: RAT, Strain/Sex: F344/MALE); “liver: adenoma” (Carcinogen: DIETHYLNITROSAMINE, 55-18-5, Doses [Carcinogen]: 150 MG/KG BW ONCE, Doses [Promoter]: 0, 0.1% IN DIET FOR 37 WK BEGINNING 2 WK POST CARCINOGEN TREATMENT (STUDY DURATION: 39 WK), Route [Carcinogen]: INTRAPERITONEAL, Route [Promoter]: ORAL, Species: RAT, Strain/Sex: F344/MALE); “liver: hepatocellular carcinoma or neoplastic nodule” (Carcinogen: DIETHYLNITROSAMINE, 55-18-5, Doses [Carcinogen]: 150 MG/KG ONCE, Doses [Promoter]: 0.1% IN DIET BEGINNING 2 WK POST CARCINOGEN DOSE AND CONTINUING FOR 54 WK (STUDY DURATION: 56 WK), Route [Carcinogen]: INTRAPERITONEAL, Route [Promoter]: ORAL, Species: RAT, Strain/Sex: F344/MALE); “liver: hepatocellular carcinoma or neoplastic nodule” (Carcinogen: DIETHYLNITROSAMINE, 55-18-5, Doses [Carcinogen]: 150 MG/KG ONCE, Doses [Promoter]: 0.1% IN DIET BEGINNING 2 WK POST CARCINOGEN DOSE FOR 71 WK FOLLOWED BY CONTROL DIET FOR DURATION OF STUDY (STUDY DURATIO, Route [Carcinogen]: INTRAPERITONEAL, Route [Promoter]: ORAL, Species: RAT, Strain/Sex: F344/MALE); “liver: hepatocellular carcinoma or neoplastic nodule” (Carcinogen: DIETHYLNITROSAMINE, 55-18-5, Doses [Carcinogen]: 150 MG/KG ONCE, Doses [Promoter]: 0.1% IN DIET BEGINNING 11 WK POST CARCINOGEN DOSE AND CONTINUING FOR DURATION OF STUDY (STUDY DURATION: 56 WK), Route [Carcinogen]: INTRAPERITONEAL, Route [Promoter]: ORAL, Species: RAT, Strain/Sex: F344/MALE).

`N`: the outcome is, setting by setting: (Carcinogen: N-METHYL-N'-NITRO-N-NITROSOGUANIDINE, 70-25-7, Doses [Carcinogen]: 83 MG/L IN DRINKING WATER FOR 24 WK, Doses [Promoter]: 0, 0.01% IN DRINKING WATER BEGINNING POST LAST CARCINOGEN DOSE AND CONTINUING FOR 24 WK (STUDY DURATION: 48 WK), Route [Carcinogen]: ORAL, Route [Promoter]: ORAL, Species: RAT, Strain/Sex: SPRAGUE-DAWLEY/MALE) “stomach: tumor”; (Carcinogen: N-METHYL-N'-NITRO-N-NITROSOGUANIDINE, 70-25-7, Doses [Carcinogen]: 83 MG/L IN DRINKING WATER FOR 24 WK, Doses [Promoter]: 0, 0.01% IN DRINKING WATER FOR 24 WK BEGINNING POST CARCINOGEN TREATMENT (STUDY DURATION: 48 WK), Route [Carcinogen]: ORAL, Route [Promoter]: ORAL, Species: RAT, Strain/Sex: SPRAGUE-DAWLEY/MALE) “stomach: adenocarcinoma”. As for `CCCCCC1(CCCCCC(=O)OC23C(OC(C)=O)C(C)C4(O)C(C=C(CO)CC5(O)C(=O)C(C)=CC54)C2C3(C)C)OCC(C)(C)N1[O]` (stereo unspecified), the outcome (Carcinogen: 7,12-DIMETHYLBENZ[A]ANTHRACENE, 57-97-6, Doses [Carcinogen]: 100 NMOL ONCE, Doses [Promoter]: 0, 20 NMOL 2/WK FOR 24 WK BEGINNING 1 WK POST CARCINOGEN DOSE (STUDY DURATION: 25 WK), Route [Carcinogen]: DERMAL, Route [Promoter]: DERMAL, Species: MOUSE, Strain/Sex: NMRI/FEMALE) is “skin: tumor”. Turning to `Clc1ccc(-c2ccc(Cl)c(Cl)c2)cc1Cl`, the outcome is, setting by setting: (Carcinogen: 7,12-DIMETHYLBENZ[A]ANTHRACENE, 57-97-6, Doses [Carcinogen]: 10 MG IN 0.5 ML CORN OIL ONCE, Doses [Promoter]: 0, 10 MG/KG BW ONCE AT TIME OF CARCINOGEN DOSE THEN 500 UG/G OF FAT IN DIET FOR 1 WK ADMINISTERED TO RATS FED HIGH-FAT (, Route [Carcinogen]: GAVAGE, Route [Promoter]: GAVAGE, ORAL, Species: RAT, Strain/Sex: SPRAGUE-DAWLEY/FEMALE) “mammary gland: tumor”; (Carcinogen: 7,12-DIMETHYLBENZ[A]ANTHRACENE, 57-97-6, Doses [Carcinogen]: 10 MG IN 0.5 ML CORN OIL ONCE, Doses [Promoter]: 0, 10 MG/KG BW ONCE AT TIME OF CARCINOGEN DOSE THEN 500 UG/G OF FAT IN DIET FOR 1 WK ADMINISTERED TO RATS FED LOW FAT (5, Route [Carcinogen]: GAVAGE, Route [Promoter]: GAVAGE, ORAL, Species: RAT, Strain/Sex: SPRAGUE-DAWLEY/FEMALE) “mammary gland: tumor”. In the case of `Cc1cccc(C)c1N`, where the note is “Carcinogen: N-BIS(2-HYDROXYPROPYL)NITROSAMINE) [53609-64-6], Doses [Carcinogen]: 2400 MG/KG BW ONCE (STUDY DURATION: 53 WK), Doses [Promoter]: 3000 PPM IN DIET FOR 52 WK BEGINNING 1 WK POST LAST CARCINOGEN DOSE (STUDY DURATION: 53 WK), Route [Carcinogen]: SUBCUTANEOUS, Route [Promoter]: ORAL, Species: RAT, Strain/Sex: F344/MALE”, the outcome is “nasal cavity: carcinoma”. As to `CC(=O)[O-].CC(=O)[O-].[OH-].[OH-].[OH-].[OH-].[Pb+2].[Pb+2].[Pb+2]`, the outcome by setting is: (Carcinogen: N-ETHYL-N-(2-HYDROXYETHYL)NITROSAMINE, Doses [Carcinogen]: 0.1% IN DRINKING WATER FOR 1 WK, Doses [Promoter]: 0.1% IN DIET FOR 35 WK, Route [Carcinogen]: ORAL, Route [Promoter]: ORAL, Species: RAT, Strain/Sex: F344/MALE) “kidney: renal cell tumor”; (Carcinogen: N-ETHYL-N-(2-HYDROXYETHYL)NITROSAMINE, Doses [Carcinogen]: 500 PPM IN DIET FOR TWO WK, Doses [Promoter]: 1000 PPM IN DIET FOR 20 WK, Route [Carcinogen]: ORAL, Route [Promoter]: ORAL, Species: RAT, Strain/Sex: WISTAR) “kidney: adenoma, adenocarcinoma”.
